Results reported in BindingDB's records for patent US20260008775 (Genentech, 2026).
pKi: −log10 of the molar value.

Biological target: 3-beta-hydroxysteroid-Delta(8),Delta(7)-isomerase (Homo sapiens, UniProt Q15125)
Assay: Determination of Binding Affinity to EBP-7-Dehydrocholesterol Reductase
Protocol: The plates were sealed and incubated at 4° C. for 3 hrs. Then, the plates were washed with ice-cold assay buffer 3 times. […] Following this, the plate was centrifuged at 1000 rpm for 30 secs. The plate was then sealed and agitated at 600 rpm at 22° C. for 5 min, and then incubated at 22° C. for 3 hrs. The incubation was stopped by transferring the binding solution to the pre-treated UniFilter-96 GF/B plate, vacuum filtrated, and then washed four times with ice-cold assay buffer. Following this, the plates were dried at 37° C. for 45 min. The plates were then sealed at the bottom. 40 µl/well of scintillation cocktail was added to the plates.

3-beta-hydroxysteroid-Delta(8),Delta(7)-isomerase, sequence (Q15125 whole entry): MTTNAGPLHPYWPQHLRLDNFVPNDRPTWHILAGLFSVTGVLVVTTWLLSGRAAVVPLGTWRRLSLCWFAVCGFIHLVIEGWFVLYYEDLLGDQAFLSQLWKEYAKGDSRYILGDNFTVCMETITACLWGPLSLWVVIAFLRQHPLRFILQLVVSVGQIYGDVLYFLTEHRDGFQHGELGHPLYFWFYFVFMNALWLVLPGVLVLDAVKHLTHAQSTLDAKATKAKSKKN

CC(C)n1nc(-c2cncc(C(F)(F)F)c2)cc1[C@H]1[C@@H]2C[C@@H](N3CCOCC3)C[C@@H]21 [US20260008775, Example Table4.2]
pKi: 6.73
